Measurements as given in article PMC9097471, “Development of Selective Phosphatidylinositol 5-Phosphate 4-Kinase γ Inhibitors with a Non-ATP-competitive, Allosteric Binding Mode” (Journal of Medicinal Chemistry, 2022).

Columns and labels:
[1] = target: CAMK1 (Homo sapiens, UniProt Q14012); experiment: Kinase panel, radiometric 33P filter binding; details: read-out: % activity remaining
Text: (§3) filter binding assay using 33P-g-ATPat the MRC PPU International Centre for Kinase Profiling, University of

[2] = target: CAMKKb (Homo sapiens, UniProt Q96RR4); experiment: Kinase panel, radiometric 33P filter binding; details: read-out: % activity remaining
Text: as §3

[3] = target: EIF2AK3 (Homo sapiens, UniProt Q9NZJ5); experiment: Kinase panel, radiometric 33P filter binding; details: read-out: % activity remaining
Chain of EIF2AK3 (Q9NZJ5 30-1116): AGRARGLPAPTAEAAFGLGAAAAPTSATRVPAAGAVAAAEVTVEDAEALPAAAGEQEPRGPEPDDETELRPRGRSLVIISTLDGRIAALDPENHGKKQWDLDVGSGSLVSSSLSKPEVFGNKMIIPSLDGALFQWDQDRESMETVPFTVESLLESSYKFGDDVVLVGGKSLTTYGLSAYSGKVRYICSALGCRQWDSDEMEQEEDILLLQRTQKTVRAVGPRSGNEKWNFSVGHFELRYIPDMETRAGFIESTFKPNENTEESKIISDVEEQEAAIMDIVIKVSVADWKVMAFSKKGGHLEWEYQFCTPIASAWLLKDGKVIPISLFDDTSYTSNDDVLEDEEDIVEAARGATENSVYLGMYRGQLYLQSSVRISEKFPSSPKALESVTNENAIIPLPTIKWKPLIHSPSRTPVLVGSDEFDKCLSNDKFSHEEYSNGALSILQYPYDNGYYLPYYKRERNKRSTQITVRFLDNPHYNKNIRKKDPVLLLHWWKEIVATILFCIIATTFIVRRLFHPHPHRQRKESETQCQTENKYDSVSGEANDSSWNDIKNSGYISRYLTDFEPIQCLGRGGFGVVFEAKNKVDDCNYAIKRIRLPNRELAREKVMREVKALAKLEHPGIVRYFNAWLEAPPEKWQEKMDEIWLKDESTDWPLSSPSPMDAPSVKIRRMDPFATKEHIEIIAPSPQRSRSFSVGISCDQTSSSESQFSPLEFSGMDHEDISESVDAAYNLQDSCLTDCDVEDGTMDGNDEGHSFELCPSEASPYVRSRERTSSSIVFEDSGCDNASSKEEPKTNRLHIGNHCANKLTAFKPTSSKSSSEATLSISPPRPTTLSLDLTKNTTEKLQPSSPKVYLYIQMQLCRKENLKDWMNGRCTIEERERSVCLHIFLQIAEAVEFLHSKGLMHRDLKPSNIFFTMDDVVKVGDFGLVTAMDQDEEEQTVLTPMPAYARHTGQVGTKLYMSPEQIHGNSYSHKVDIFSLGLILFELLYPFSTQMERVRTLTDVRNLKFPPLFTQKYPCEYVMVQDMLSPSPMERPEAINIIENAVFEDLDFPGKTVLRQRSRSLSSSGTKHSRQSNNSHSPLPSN
Text: as §3

[4] = target: JNK3 (Homo sapiens, UniProt P53779); experiment: Kinase panel, radiometric 33P filter binding; details: read-out: % activity remaining
Chain of JNK3 (P53779 whole entry): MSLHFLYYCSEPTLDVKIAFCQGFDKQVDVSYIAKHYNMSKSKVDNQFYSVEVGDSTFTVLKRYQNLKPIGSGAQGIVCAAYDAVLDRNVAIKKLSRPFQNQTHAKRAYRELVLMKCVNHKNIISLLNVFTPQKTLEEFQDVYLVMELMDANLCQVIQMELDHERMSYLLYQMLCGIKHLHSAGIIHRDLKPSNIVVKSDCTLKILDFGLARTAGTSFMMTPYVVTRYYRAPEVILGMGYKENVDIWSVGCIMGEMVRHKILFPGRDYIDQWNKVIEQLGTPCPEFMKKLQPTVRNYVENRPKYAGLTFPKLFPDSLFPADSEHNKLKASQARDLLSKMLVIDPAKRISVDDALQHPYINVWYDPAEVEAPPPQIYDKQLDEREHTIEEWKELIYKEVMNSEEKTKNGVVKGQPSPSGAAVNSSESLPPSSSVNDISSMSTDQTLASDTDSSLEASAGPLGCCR
Text: as §3

[5] = target: GSK3b (Homo sapiens, UniProt P49841); experiment: Kinase panel, radiometric 33P filter binding; details: read-out: % activity remaining
Chain of GSK3b (P49841 whole entry): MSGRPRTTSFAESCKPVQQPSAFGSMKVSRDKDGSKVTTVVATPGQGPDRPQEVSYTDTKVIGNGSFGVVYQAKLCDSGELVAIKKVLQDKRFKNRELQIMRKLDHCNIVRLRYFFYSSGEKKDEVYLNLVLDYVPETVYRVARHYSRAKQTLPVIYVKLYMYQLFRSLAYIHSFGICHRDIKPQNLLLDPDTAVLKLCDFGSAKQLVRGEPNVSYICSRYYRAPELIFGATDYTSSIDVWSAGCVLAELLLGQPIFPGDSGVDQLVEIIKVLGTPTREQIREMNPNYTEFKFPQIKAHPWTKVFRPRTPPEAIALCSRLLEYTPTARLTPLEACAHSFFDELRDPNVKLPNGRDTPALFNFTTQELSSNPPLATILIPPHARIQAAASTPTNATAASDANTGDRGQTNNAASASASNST
Text: as §3

[6] = target: MNK2 (Homo sapiens, UniProt Q9HBH9); experiment: Kinase panel, radiometric 33P filter binding; details: read-out: % activity remaining
[7] = target: MAP4K5 (Homo sapiens, UniProt Q9Y4K4); experiment: Kinase panel, radiometric 33P filter binding; details: read-out: % activity remaining
Text: as §3

[8] = target: MAP4K3 (Homo sapiens, UniProt Q8IVH8); experiment: Kinase panel, radiometric 33P filter binding; details: read-out: % activity remaining
Text: as §3

[9] = target: YES1 (Homo sapiens, UniProt P07947); experiment: Kinase panel, radiometric 33P filter binding; details: read-out: % activity remaining
[10] = target: PIM1 (Homo sapiens, UniProt P11309); experiment: Kinase panel, radiometric 33P filter binding; details: read-out: % activity remaining
Text: as §3

[11] = target: ERK2 (Homo sapiens, UniProt P28482); experiment: Kinase panel, radiometric 33P filter binding; details: read-out: % activity remaining
Text: as §3

[12] = target: MNK1 (Homo sapiens, UniProt Q9BUB5); experiment: Kinase panel, radiometric 33P filter binding; details: read-out: % activity remaining
[13] = target: PKBb (Homo sapiens, UniProt P31751); experiment: Kinase panel, radiometric 33P filter binding; details: read-out: % activity remaining
Text: as §3

[14] = target: EPH-A2 (Homo sapiens, UniProt P29317); experiment: Kinase panel, radiometric 33P filter binding; details: read-out: % activity remaining
Chain of EPH-A2 (P29317 24-976): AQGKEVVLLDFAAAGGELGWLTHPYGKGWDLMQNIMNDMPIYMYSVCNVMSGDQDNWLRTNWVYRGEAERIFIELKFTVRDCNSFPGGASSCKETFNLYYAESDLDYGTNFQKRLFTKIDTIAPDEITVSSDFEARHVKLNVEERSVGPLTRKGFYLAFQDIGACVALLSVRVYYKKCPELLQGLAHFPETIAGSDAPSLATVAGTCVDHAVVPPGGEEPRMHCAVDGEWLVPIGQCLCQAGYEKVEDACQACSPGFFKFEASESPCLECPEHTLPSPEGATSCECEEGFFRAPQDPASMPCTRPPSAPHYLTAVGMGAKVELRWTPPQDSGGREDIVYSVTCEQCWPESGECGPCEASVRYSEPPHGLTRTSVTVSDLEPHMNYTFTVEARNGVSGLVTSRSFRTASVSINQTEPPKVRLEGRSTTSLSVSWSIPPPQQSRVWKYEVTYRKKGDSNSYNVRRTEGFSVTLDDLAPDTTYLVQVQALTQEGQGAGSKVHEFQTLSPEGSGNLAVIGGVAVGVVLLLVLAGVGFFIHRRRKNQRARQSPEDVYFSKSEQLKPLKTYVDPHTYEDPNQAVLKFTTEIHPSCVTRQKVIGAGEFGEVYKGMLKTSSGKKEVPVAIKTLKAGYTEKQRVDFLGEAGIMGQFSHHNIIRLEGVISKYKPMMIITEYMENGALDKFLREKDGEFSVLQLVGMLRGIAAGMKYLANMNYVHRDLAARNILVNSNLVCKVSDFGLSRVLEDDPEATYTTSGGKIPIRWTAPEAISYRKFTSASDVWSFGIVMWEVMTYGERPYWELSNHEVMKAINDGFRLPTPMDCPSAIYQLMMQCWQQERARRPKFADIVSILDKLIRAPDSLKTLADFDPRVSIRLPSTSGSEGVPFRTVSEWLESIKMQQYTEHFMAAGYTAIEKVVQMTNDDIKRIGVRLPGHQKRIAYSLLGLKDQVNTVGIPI
Text: as §3

[15] = target: DGK zeta (Homo sapiens, UniProt Q13574); experiment: Lipid kinase panel, ADP-Glo; type: biochemical
Text: (§1) Kinase % activity remaining s.d.
(§2) Choline Kinase alpha 101.6 3.2

[16] = target: Choline Kinase alpha (Homo sapiens, UniProt P35790); experiment: Lipid kinase panel, ADP-Glo; type: biochemical
Text: as §1, §2

[17] = target: PI3K beta (Homo sapiens, UniProt P42338); experiment: Lipid kinase panel, ADP-Glo; type: biochemical
Text: as §1, §2

[18] = target: DGK gamma (Homo sapiens, UniProt P49619); experiment: Lipid kinase panel, ADP-Glo; type: biochemical
Text: as §1, §2

[19] = target: SPHK1 (Homo sapiens, UniProt Q9NYA1); experiment: Lipid kinase panel, ADP-Glo; type: biochemical; details: SPHK1, 10 μM
Text: as §1, §2

[20] = target: MKK1 (Homo sapiens, UniProt Q02750); experiment: Kinase panel, radiometric 33P filter binding; details: read-out: % activity remaining
[21] = target: EF2K (Homo sapiens, UniProt O00418); experiment: Kinase panel, radiometric 33P filter binding; details: read-out: % activity remaining
Text: as §3

[22] = target: RIPK2 (Homo sapiens, UniProt O43353); experiment: Kinase panel, radiometric 33P filter binding; details: read-out: % activity remaining
[23] = target: CLK2 (Homo sapiens, UniProt P49760); experiment: Kinase panel, radiometric 33P filter binding; details: read-out: % activity remaining
Text: as §3

[24] = target: DYRK2 (Homo sapiens, UniProt Q92630); experiment: Kinase panel, radiometric 33P filter binding; details: read-out: % activity remaining
Text: as §3

[25] = target: PKCa (Homo sapiens, UniProt P17252); experiment: Kinase panel, radiometric 33P filter binding; details: read-out: % activity remaining
Text: as §3

[26] = target: CDK9-Cyclin T1 (Homo sapiens, UniProt P50750); experiment: Kinase panel, radiometric 33P filter binding; type: biochemical; details: CDK9-Cyclin T1, 10 μM
Chain of CDK9-Cyclin T1 (P50750 whole entry): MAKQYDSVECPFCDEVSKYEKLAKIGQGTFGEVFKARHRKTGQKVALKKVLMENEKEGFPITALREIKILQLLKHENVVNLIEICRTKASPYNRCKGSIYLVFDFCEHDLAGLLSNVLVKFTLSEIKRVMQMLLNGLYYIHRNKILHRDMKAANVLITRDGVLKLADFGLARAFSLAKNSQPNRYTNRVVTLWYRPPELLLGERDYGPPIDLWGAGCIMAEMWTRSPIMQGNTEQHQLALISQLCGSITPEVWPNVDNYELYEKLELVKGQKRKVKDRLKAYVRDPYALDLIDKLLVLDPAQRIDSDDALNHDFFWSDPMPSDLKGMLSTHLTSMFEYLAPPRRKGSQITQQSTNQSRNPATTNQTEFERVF
Chain of CDK9-Cyclin T1 (O60563 whole entry partner): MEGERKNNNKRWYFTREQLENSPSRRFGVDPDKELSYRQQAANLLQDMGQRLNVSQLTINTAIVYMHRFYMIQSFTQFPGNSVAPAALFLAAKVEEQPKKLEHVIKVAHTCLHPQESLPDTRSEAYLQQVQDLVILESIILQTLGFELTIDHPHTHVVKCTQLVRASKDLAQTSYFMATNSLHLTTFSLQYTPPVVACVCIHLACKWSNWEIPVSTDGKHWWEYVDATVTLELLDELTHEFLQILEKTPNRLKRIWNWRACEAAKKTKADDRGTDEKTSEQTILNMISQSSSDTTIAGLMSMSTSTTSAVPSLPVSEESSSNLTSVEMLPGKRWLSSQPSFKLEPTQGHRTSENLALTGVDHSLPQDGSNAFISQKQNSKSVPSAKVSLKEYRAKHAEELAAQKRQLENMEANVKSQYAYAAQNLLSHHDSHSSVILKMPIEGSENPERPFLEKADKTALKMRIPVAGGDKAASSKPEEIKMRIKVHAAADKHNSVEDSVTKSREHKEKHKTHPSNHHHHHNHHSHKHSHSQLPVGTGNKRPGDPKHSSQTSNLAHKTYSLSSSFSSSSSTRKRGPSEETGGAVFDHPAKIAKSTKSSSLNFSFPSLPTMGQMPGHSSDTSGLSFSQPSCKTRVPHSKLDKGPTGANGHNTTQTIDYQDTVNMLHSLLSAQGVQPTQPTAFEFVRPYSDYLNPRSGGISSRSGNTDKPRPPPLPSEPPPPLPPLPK
Text: as §1

[27] = target: ABL (Homo sapiens, UniProt P00519); experiment: Kinase panel, radiometric 33P filter binding; type: biochemical
Text: as §1

[28] = target: SmMLCK (Homo sapiens, UniProt Q15746); experiment: Kinase panel, radiometric 33P filter binding; type: biochemical
Text: as §1

[29] = target: SIK2 (Homo sapiens, UniProt Q9H0K1); experiment: Kinase panel, radiometric 33P filter binding; details: read-out: % activity remaining
Text: as §3

[30] = target: STK33 (Homo sapiens, UniProt Q9BYT3); experiment: Kinase panel, radiometric 33P filter binding; details: read-out: % activity remaining
Text: as §3

[31] = target: PINK (Tribolium castaneum, UniProt D6WMX4); experiment: biochemical; details: read-out: % activity remaining
[32] = target: ROCK 2 (Rattus norvegicus, UniProt Q62868); experiment: Kinase panel, radiometric 33P filter binding; details: read-out: % activity remaining
Text: as §3

[33] = target: CHK1 (Homo sapiens, UniProt O14757); experiment: Kinase panel, radiometric 33P filter binding; details: read-out: % activity remaining
Text: as §3

[34] = target: PAK2 (Homo sapiens, UniProt Q13177); experiment: Kinase panel, radiometric 33P filter binding
Chain of PAK2 (Q13177 whole entry): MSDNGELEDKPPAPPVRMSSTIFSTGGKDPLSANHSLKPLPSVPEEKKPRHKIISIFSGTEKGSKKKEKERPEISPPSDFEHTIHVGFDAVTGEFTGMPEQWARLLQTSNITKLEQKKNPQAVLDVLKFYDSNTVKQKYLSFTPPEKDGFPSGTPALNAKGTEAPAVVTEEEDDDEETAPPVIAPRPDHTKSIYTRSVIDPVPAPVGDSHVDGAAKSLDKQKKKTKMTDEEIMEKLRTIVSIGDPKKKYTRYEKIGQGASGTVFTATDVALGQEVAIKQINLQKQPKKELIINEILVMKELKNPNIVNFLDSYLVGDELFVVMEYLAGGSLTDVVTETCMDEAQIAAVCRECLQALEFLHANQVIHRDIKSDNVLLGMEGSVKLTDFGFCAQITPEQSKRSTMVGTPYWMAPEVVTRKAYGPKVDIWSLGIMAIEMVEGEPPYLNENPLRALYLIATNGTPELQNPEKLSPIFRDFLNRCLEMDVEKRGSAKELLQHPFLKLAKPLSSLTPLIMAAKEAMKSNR

[35] = target: p38b MAPK (Homo sapiens, UniProt Q15759); experiment: Kinase panel, radiometric 33P filter binding; details: read-out: % activity remaining
Chain of p38b MAPK (Q15759 whole entry): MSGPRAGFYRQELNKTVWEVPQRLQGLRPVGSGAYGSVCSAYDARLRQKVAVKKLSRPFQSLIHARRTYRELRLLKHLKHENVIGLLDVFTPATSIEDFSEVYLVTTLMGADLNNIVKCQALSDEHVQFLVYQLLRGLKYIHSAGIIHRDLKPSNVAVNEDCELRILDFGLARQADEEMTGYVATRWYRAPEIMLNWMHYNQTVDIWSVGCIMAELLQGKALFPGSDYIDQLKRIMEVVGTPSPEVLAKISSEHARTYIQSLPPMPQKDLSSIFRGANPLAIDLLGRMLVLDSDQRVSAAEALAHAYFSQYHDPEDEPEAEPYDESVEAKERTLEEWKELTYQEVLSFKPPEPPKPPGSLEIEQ
Text: as §3

[36] = target: NUAK1 (Homo sapiens, UniProt O60285); experiment: Kinase panel, radiometric 33P filter binding; details: read-out: % activity remaining
Text: as §3

[37] = target: LKB1 (Homo sapiens, UniProt Q15831); experiment: Kinase panel, radiometric 33P filter binding; details: read-out: % activity remaining
Text: as §3

[38] = target: PKD1 (Homo sapiens, UniProt Q15139); experiment: Kinase panel, radiometric 33P filter binding; details: read-out: % activity remaining
Text: as §3

`CC(C)c1ccccc1-c1nc(NCc2ccccn2)c2c(ccn2C)n1` [Compound 40] gave a remaining activity at 10 µM [1] of 97%, a remaining activity at 10 µM [2] of 99% and a remaining activity at 10 µM [3] of 103%. It also gave a remaining activity at 10 µM [4] of 97%, a remaining activity at 10 µM [5] of 93% and a remaining activity at 10 µM [6] of 117%. For the same compound, the remaining activity at 10 µM [7] was 112%, the remaining activity at 10 µM [8] was 91% and the remaining activity at 10 µM [9] was 115%. For the same compound, the remaining activity at 10 µM [10] was 102%, the remaining activity at 10 µM [11] was 98% and the remaining activity at 10 µM [12] was 104%. It also gave a remaining activity at 10 µM [13] of 75%, a remaining activity at 10 µM [14] of 104% and a remaining activity at 10 µM [15] of 106%. For the same compound, the remaining activity at 10 µM [16] was 102%, the remaining activity at 10 µM [17] was 111% and the remaining activity at 10 µM [18] was 99.4%. The remaining activity at 10 µM [19] was 91.8%, the remaining activity at 10 µM [20] was 92% and the remaining activity at 10 µM [21] was 98%. It also gave a remaining activity at 10 µM [22] of 92%, a remaining activity at 10 µM [23] of 94% and a remaining activity at 10 µM [24] of 106%. The remaining activity at 10 µM [25] was 118%, the remaining activity at 10 µM [26] was 108% and the remaining activity at 10 µM [27] was 108%. For the same compound, the remaining activity at 10 µM [28] was 108%, the remaining activity at 10 µM [29] was 100% and the remaining activity at 10 µM [30] was 99%. It also gave a remaining activity at 10 µM [31] of 125%, a remaining activity at 10 µM [32] of 97% and a remaining activity at 10 µM [33] of 96%. For the same compound, the “% activity remaining” value ([34]; PAK2, 10 μM, 10 µM) was < 50%, the remaining activity at 10 µM ([34]; read-out: % activity remaining, PAK2, 10 μM) was 45% and the remaining activity at 10 µM [35] was 94%. For the same compound, the remaining activity at 10 µM [36] was 88%, the remaining activity at 10 µM [37] was 94% and the remaining activity at 10 µM [38] was 109%.
